In US8420657B2 (Novartis AG, priority 2008, dated 2013):

Legend:
GST-JAK2(808-1132) = target: T1, GST-JAK2(808-1132) (Homo sapiens, UniProt O60674); experiment: JAK2 kinase assay (Caliper mobility shift, LabChip 3000); assay type: biochemical
T1 construct: GST-JAK2(808-1132); purchased Invitrogen (Carlsbad, USA) #4288
Procedure, shortened: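 Eight-point compound series (final 10–0.003 μM) tested on purchased GST-JAK2 kinase domain (808-1132). Peptide FITC-JAK3tide plus ATP reacted 60 min, 30 °C, then quenched with EDTA; turnover from charge-based separation of substrate and product.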

[1] = test system: JAK1/JAK2-dependent nuclear translocation of STAT1-GFP in HT1080 fibrosarcoma cells; experiment: STAT1 nuclear translocation assay (Cellomics), IFN-γ stimulated HT1080 STAT1-GFP cells; assay type: cell-based; conditions: Homo sapiens, HT-1080, STAT1 translocation pathway
Procedure, shortened: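 IC50 derived from percent nuclear STAT1-GFP translocation, computed from nuclear minus cytoplasmic GFP intensity against untreated baseline and DMSO-stimulated control. Stable HT1080 STAT1-GFP cells received compound (0.003–10 μM, 0.1% DMSO) 30 min ahead of a 2 h 100 ng/ml IFN-γ stimulus, then fixation and Hoechst nuclear masking.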

T1 sequence (O60674 808-1132): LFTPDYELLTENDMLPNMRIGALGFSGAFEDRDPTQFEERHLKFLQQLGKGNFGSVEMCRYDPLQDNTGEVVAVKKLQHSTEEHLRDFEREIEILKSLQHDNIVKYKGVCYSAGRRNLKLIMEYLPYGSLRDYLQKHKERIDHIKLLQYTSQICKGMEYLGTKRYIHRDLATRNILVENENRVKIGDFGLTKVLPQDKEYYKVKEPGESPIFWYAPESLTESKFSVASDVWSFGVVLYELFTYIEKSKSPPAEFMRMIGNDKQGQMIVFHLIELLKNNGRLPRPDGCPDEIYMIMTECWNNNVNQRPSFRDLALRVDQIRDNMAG

| IC50 (GST-JAK2(808-1132)) | IC50 [1] | SMILES |
| --- | --- | --- |
| 3.9 nM | 530 nM | Cc1ccc(Nc2ncc3ccn(-c4ccc(S(C)(=O)=O)cc4)c3n2)cc1CN1CCNCC1 [Example 333, [7-(4-Methanesulfonyl-phenyl)-7H-pyrrolo[2,3-d]pyrimidin-2-yl]-(4-methyl-3-piperazin-1-ylmethyl-phenyl)-amine] |
| ≤ 3 nM | 260 nM | Cc1ccc(Nc2ncc3ccn(-c4cc(F)c(CN5CCOCC5)c(F)c4)c3n2)cc1CN1CCNC(=O)C1 [Example 334, 4-{5-[7-(3,5-Difluoro-4-morpholin-4-ylmethyl-phenyl)-7H-pyrrolo[2,3-d]pyrimidin-2-ylamino]-2-methyl-benzyl}-piperazin-2-one] |
| 9.3 nM | 360 nM | CN1CCN(Cc2ccc(Nc3ncc4ccn(-c5ccc(S(C)(=O)=O)cc5)c4n3)cc2)CC1=O [Example 335, 4-{4-[7-(4-Methanesulfonyl-phenyl)-7H-pyrrolo[2,3-d]pyrimidin-2-ylamino]-benzyl}-1-methyl-piperazin-2-one] |
| 3.6 nM | 205 nM | Cc1ccc(Nc2ncc3ccn(-c4ccc(C(=O)N5CCOCC5)c(F)c4)c3n2)cc1CN1CCNCC1 [Example 336, {2-Fluoro-4-[2-(4-methyl-3-piperazin-1-ylmethyl-phenylamino)-pyrrolo[2,3-d]pyrimidin-7-yl]-phenyl}-morpholin-4-yl-methanone] |
| 6.1 nM | 185 nM | CN1CCN(Cc2ccc(Nc3ncc4ccn(-c5ccc(C(=O)N6CCOCC6)c(F)c5)c4n3)cc2)CC1=O [Example 337, 4-(4-{7-[3-Fluoro-4-(morpholine-4-carbonyl)-phenyl]-7H-pyrrolo[2,3-d]pyrimidin-2-ylamino}-benzyl)-1-methyl-piperazin-2-one] |
| 3.9 nM | 135 nM | CC(=O)N1CCN(Cc2ccc(Nc3ncc4ccn(-c5ccc(C(=O)N6CCOCC6)cc5)c4n3)cc2)CC1 [Example 338, 1-[4-(4-{7-[4-(Morpholine-4-carbonyl)-phenyl]-7H-pyrrolo[2,3-d]pyrimidin-2-ylamino}-benzyl)-piperazin-1-yl]-ethanone] |
| 3.7 nM | 285 nM | CC(=O)N1CCN(Cc2ccc(Nc3ncc4ccn(-c5cc(F)c(CN6CCNC(=O)C6)c(F)c5)c4n3)cc2)CC1 [Example 339, 4-(4-{2-[4-(4-Acetyl-piperazin-1-ylmethyl)-phenylamino]-pyrrolo[2 3-d]pyrimidin-7-yl}-2,6-difluoro-benzyl)-piperazin-2-one] |
| 7.2 nM | 270 nM | O=C1CN(Cc2c(F)cc(-n3ccc4cnc(Nc5ccc(CN6CCN(C7CC7)CC6)cc5)nc43)cc2F)CCN1 [Example 340, 4-(4-{2-[4-(4-Cyclopropyl-piperazin-1-ylmethyl)-phenylamino]-pyrrolo[2,3-d]pyrimidin-7-yl}-2,6-difluoro-benzyl)-piperazin-2-one] |
| ≤ 3 nM | 479 nM | C[C@@H]1CN(c2ccc(Nc3ncc4ccn(-c5cc(F)c(CN6CCNC(=O)C6)c(F)c5)c4n3)cn2)C[C@H](C)N1 [Example 342, 4-(4-{2-[6-(cis-3,5-Dimethyl-piperazin-1-yl)-pyridin-3-ylamino]-pyrrolo[2,3-d]pyrimidin-7-yl}-2,6-difluoro-benzyl)-piperazin-2-one] |
| ≤ 3 nM | 151 nM | Cc1ccc(Nc2ncc3ccn(-c4cc(F)c(CN5CCNC(=O)C5)c(F)c4)c3n2)cc1CN1CCN(C)CC1 [Example 343, 4-(2,6-Difluoro-4-{2-[4-methyl-3-(4-methyl-piperazin-1-ylmethyl)-phenylamino]-pyrrolo[2,3-d]pyrimidin-7-yl}-benzyl)-piperazin-2-one] |
| ≤ 3 nM | 45 nM | C[C@@H]1CN(c2ccc(Nc3ncc4ccn(-c5cc(F)c(CN6CCS(=O)(=O)CC6)c(F)c5)c4n3)cn2)C[C@H](C)N1 [Example 441, [6-(cis-3,5-Dimethyl-piperazin-1-yl)-pyridin-3-yl]-{7-[4-(1,1-dioxido-thiomorpholin-4-ylmethyl)-3,5-difluoro-phenyl]-7H-pyrrolo[2,3-d]pyrimidin-2-yl}-amine] |
| ≤ 3 nM | 9.5 nM | CN1CCN(c2ccc(Nc3ncc4ccn(-c5cc(F)c(CN6CCS(=O)(=O)CC6)c(F)c5)c4n3)cn2)CC1 [Example 443, {7-[4-(1,1-Dioxido-thiomorpholin-4-ylmethyl)-3,5-difluoro-phenyl]-7H-pyrrolo[2,3-d]pyrimidin-2-yl}-[6-(4-methyl-piperazin-1-yl)-pyridin-3-yl]-amine] |
| ≤ 3 nM | 90 nM | O=S1(=O)CCN(Cc2c(F)cc(-n3ccc4cnc(Nc5ccc(N6CCNCC6)nc5)nc43)cc2F)CC1 [Example 444, {7-[4-(1,1-Dioxido-thiomorpholin-4-ylmethyl)-3,5-difluoro-phenyl]-7H-pyrrolo[2,3-d]pyrimidin-2-yl}-(6-piperazin-1-yl-pyridin-3-yl)-amine] |
| 8 nM | 2890 nM | CC(C)Oc1ccc(Nc2ncc3ccn(-c4ccc(C(=O)N5CCOCC5)cc4F)c3n2)cc1 [Example 522, {3-Fluoro-4-[2-(4-isopropoxy-phenylamino)-pyrrolo[2,3-d]pyrimidin-7-yl]-phenyl}-morpholin-4-yl-methanone] |

Second part, the compound before the results:

| SMILES | IC50 (GST-JAK2(808-1132)) | IC50 [1] |
| --- | --- | --- |
| Cn1cc(Nc2ncc3ccn(-c4ccc(C(=O)N5CCOCC5)c(F)c4)c3n2)cn1 [Example 302, {2-Fluoro-4-[2-(1-methyl-1H-pyrazol-4-ylamino)-pyrrolo[2,3-d]pyrimidin-7-yl]-phenyl}-morpholin-4-yl-methanone] | 6.1 nM | 85 nM |
| COc1cc(Nc2ncc3ccn(-c4ccc(C(=O)N5CCOCC5)c(F)c4)c3n2)ccc1C [Example 303, {2-Fluoro-4-[2-(3-methoxy-4-methyl-phenylamino)-pyrrolo[2,3-d]pyrimidin-7-yl]-phenyl}-morpholin-4-yl-methanone] | 4.9 nM | 295 nM |
| Cc1ccc(Nc2ncc3ccn(-c4cc(F)c(CN5CCN(C)CC5)c(F)c4)c3n2)cc1C [Example 304, {7-[3,5-Difluoro-4-(4-methyl-piperazin-1-ylmethyl)-phenyl]-7H-pyrrolo[2,3-d]pyrimidin-2-yl}-(3,4-dimethyl-phenyl)-amine] | 13.5 nM | 1480 nM |
| Cc1ccc(Nc2ncc3ccn(-c4cc(F)c(CN5CCN(C(C)C)CC5)c(F)c4)c3n2)cc1C [Example 305, {7-[3,5-Difluoro-4-(4-isopropyl-piperazin-1-ylmethyl)-phenyl]-7H-pyrrolo[2,3-d]pyrimidin-2-yl}-(3,4-dimethyl-phenyl)-amine] | 26 nM | 2680 nM |
| Cc1ccc(Nc2ncc3ccn(-c4cc(F)c(CN5CCN(C6CC6)CC5)c(F)c4)c3n2)cc1C [Example 306, {7-[4-(4-Cyclopropyl-piperazin-1-yl methyl)-3,5-difluoro-phenyl]-7H-pyrrolo[2,3-d]pyrimidin-2-yl}-(3,4-dimethyl-phenyl)-amine] | 39.5 nM | 550 nM |
| COc1cc(Nc2ncc3ccn(-c4cc(F)c(CN5CCOCC5)c(F)c4)c3n2)ccc1C [Example 307, [7-(3,5-Difluoro-4-morpholin-4-ylmethyl-phenyl)-7H-pyrrolo[2,3-d]pyrimidin-2-yl]-(3-methoxy-4-methyl-phenyl)-amine] | 14 nM | 120 nM |
| COc1cc(Nc2ncc3ccn(-c4cc(F)c(CN5CCS(=O)(=O)CC5)c(F)c4)c3n2)ccc1C [Example 308, {7-[4-(1,1-Dioxido-thiomorpholin-4-ylmethyl)-3,5-difluoro-phenyl]-7H-pyrrolo[2,3-d]pyrimidin-2-yl}-(3-methoxy-4-methyl-phenyl)-amine] | < 3 nM | 15 nM |
| Cc1ccc(Nc2ncc3ccn(-c4cc(F)c(CN5CCOCC5(C)C)c(F)c4)c3n2)cc1C [Example 309, {7-[4-(3,3-Dimethyl-morpholin-4-ylmethyl)-3,5-difluoro-phenyl]-7H-pyrrolo[2,3-d]pyrimidin-2-yl}-(3,4-dimethyl-phenyl)-amine] | 780 nM | 4160 nM |
| Cc1ccc(Nc2ncc3ccn(-c4cc(F)c(CN5CCN(C)C(=O)C5)c(F)c4)c3n2)cc1C [Example 310, 4-{4-[2-(3,4-Dimethyl-phenylamino)-pyrrolo[2,3-d]pyrimidin-7-yl]-2,6-difluoro-benzyl}-1-methyl-piperazin-2-one] | 6.4 nM | 570 nM |
| Cc1ccc(Nc2ncc3ccn(-c4cc(F)c(CN5CCNC(=O)C5)c(F)c4)c3n2)cc1C [Example 312, 4-{4-[2-(3,4-Dimethyl-phenylamino)-pyrrolo[2,3-d]pyrimidin-7-yl]-2,6-difluoro-benzyl}-piperazin-2-one] | 13 nM | 565 nM |
